Measured values published in article PMC10816276 (International Journal of Molecular Sciences, 2024).
“Also recorded” adds a separate entry of the source.

Legend:
[1] = test system: human immortalized keratinocyte (HaCaT) non-tumor cells; assay: CCK-8 cell proliferation and cytotoxicity assay, HaCaT; assay type: cell-based
Method: I. Cell lines and cell culture. Human melanoma A375 tumor cells and human immortalized keratinocyte (HaCaT) non-tumor cells were obtained from Nanjing Pusheng Biomedical Technology Co., Ltd. (Nanjing, China). The cells (A375/HaCaT) were cultured in Dulbecco’s modified Eagle’s medium (DMEM, Gibco, New York, NY, USA) supplemented with 10% (v/v) fetal bovine serum (FBS, Gibco, New York, NY, USA), and incubated at 37 °C with 5% CO2 in a humidified incubator.
II. Cell viability assay. Cell proliferation and cytotoxicity assays were conducted using the Cell counting kit-8 (CCK-8) on A375 and HaCaT cells. Briefly, the cells were initially seeded in 96-well plates at a density of 4 × 10^4 cells per well and incubated for 24 h at 37 °C with 5% CO2 in a humidified incubator. Each treatment was performed in six duplicate wells. The tested compounds were added at various concentrations, and the cells were then incubated for 72 h. Following the incubation period, CCK-8 solution (Dojindo Laboratories, Kumamoto, Japan) was added to each well, and the plates were further incubated for 2 h. The absorbance of each well at 450 nm was measured using an absorbance microplate reader (BioTek ELx800, Winooski, VT, USA). The assay included negative controls in which cells were treated with ultrapure water and positive controls in which cells were treated with 10 µg·mL^−1 taxol. The percentage of cell growth inhibition was calculated using the following Equation (3). (3) Cell growth inhibition rate [%]=B1−B2/B1−B3×100 where B1 represents the absorbance of a mixture containing cells, medium, and CCK-8 solution, B2 represents the absorbance of a mixture containing cells, medium, CCK-8 solution, and the test compound; and B3 represents a mixture containing medium and CCK-8 solution.

[2] = biological target: T1, Mushroom tyrosinase (mTyr) (Agaricus bisporus, UniProt C7FF04); assay: Fluorescence quenching of mTyr; assay type: binding
T1 construct: purchased Sigma-Aldrich
Description: Fluorescence quenching can be classified into static quenching and dynamic quenching. Static quenching occurs when quenching agents bind to fluorescent substances, forming complexes that result in quenching. Dynamic quenching, on the other hand, primarily arises from thermal motion and molecular collisions. The plot of F0/F against the concentration of 6′-O-caffeoylarbutin yielded a straight line with a good linear relationship (R^2 = 0.9802). […] Typically, the threshold value for the maximum collisional quenching rate constant between small molecular quenchers and large biomolecules is 2.0 × 10^10 L·(mol·s)^−1. If the calculated quenching rate constant is below this threshold, it indicates a dynamic quenching mechanism. Conversely, if the quenching rate constant exceeds this threshold, the quenching process may involve static quenching.
In the static quenching process, the relationship between fluorescence intensity and quencher concentration can be described by Equation (1). lg[(F0 − F)/F] = lgKa + nlg[Q](1) where F0 and F represent relative fluorescence intensities of the solution without and with the quencher, respectively. Ka represents the apparent binding constant between the enzyme and the quencher, n represents the number of binding sites on each biomacromolecule for the quencher, and [Q] denotes the concentration of the quencher. In this study, a double-logarithmic linear regression analysis of lg[(F0 − F)/F] against lg[Q] was conducted to evaluate the interaction between 6′-O-caffeoylarbutin and mTyr. Figure S5C illustrates the resulting regression line, which provided a slope and intercept for the calculation of Ka and n. The obtained values were determined as (10.79 ± 0.82) × 10^4 L∙mol^−1 and 0.79 ± 0.06, respectively. These findings indicate the formation of a stable complex between 6′-O-caffeoylarbutin and mTyr, involving a single binding site.
The fluorescence quenching role of 6′-O-caffeoylarbutin on mTyr was investigated using a RF-6000 fluorescence spectrophotometer (Shimadzu, Kyoto, Japan) with a xenon flash lamp as a light source, according to the literature with minor alterations. The excitation wavelength was 280 nm, with a scanning wavelength ranging from 290 to 500 nm at 37 °C. The excitation and emission bandwidths were 2.5 nm and 5.0 nm, respectively. A 3 mL mixture containing 2.0 mL of 31.25 U·mL^−1 mTyr solution, 0.5 mL of 6′-O-caffeoylarbutin solution (with 3% dimethyl sulfoxide) at concentrations from 0 to 100 μM, and 0.5 mL of PBS was used to collect the fluorescence intensity curves. The PBS served as the corresponding blank to correct the fluorescence intensities. The fluorescence quenching mechanism between mTyr and 6′-O-caffeoylarbutin was described using the Stern-Volmer Equation (2). (2) F0/F=1+KSVQ=1+Kqτ0[Q] where KSV is the Stern-Volmer quenching constant, [Q] represents the concentration of 6′-O-caffeoylarbutin, Kq is bimolecular quenching rate constant, and τ0 denotes the average lifetime of the fluorescence molecules in the absence of 6′-O-caffeoylarbutin (value is 10^−8 s).

[3] = test system: zebrafish; set-up: method as in PMID 24498931; settings: live zebrafish model; cited from earlier work

T1 sequence (C7FF04 1-392): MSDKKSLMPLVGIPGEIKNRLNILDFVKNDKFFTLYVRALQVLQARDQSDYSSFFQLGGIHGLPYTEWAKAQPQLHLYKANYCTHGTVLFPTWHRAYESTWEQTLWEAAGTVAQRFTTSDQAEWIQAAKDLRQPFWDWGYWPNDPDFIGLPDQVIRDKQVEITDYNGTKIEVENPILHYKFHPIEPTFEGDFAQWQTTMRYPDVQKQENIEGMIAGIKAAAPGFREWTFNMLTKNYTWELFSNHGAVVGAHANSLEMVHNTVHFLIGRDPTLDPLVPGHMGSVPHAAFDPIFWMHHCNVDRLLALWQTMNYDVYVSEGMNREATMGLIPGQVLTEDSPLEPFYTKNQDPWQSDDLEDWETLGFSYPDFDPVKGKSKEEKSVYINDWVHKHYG

O=C(C=Cc1ccc(O)c(O)c1)OCC1OC(Oc2ccc(O)cc2)C(O)C(O)C1O (centres unmarked) [6′-O-caffeoylarbutin]
inhibition rate ([1]; 3.125–100 μg∙mL^−1, 72 h): below 3%
inhibition at 200 µg/mL ([1]; Homo sapiens, 200 μg∙mL^−1, 72 h, read-out: inhibition rate): 3.6%
inhibition at 400 µg/mL ([1]; Homo sapiens, 400 μg∙mL^−1, 72 h, read-out: inhibition rate): 14.5%
IC50 ([1]; Homo sapiens, 72 h, CCK-8): > 400 µg/mL
reduction of the peak of the fluorescence emission spectrum of mTyr ([2]; 25 μM): 37.18%
decrease in the fluorescence emission spectrum of mTyr ([2]; 100 μM): 12.57%
quenching rate constant Kq ([2]; Stern-Volmer, 37 °C): 4.11e+12 L·mol/s
apparent binding constant Ka ([2]; double-logarithmic regression): 108000 L/mol
number of binding sites n ([2]; double-logarithmic regression): 0.79 ± 0.06
inhibitory effect on melanin production relative to beta-arbutin [3]: approximately two-fold higher; also recorded: approximately twice as potent as that of beta-arbutin
toxicity level relative to beta-arbutin [3]: around half that of beta-arbutin
